The results in this text go back to US12180193B2, “Accelerating fibrosarcoma protein degrading compounds and associated methods of use” (Arvinas Operations, Inc., priority 2020, dated 2024).

One assay concerns the target T1, BRAF G466V (Homo sapiens, UniProt P15056, G466V).
T1 construct: expressed in transfected cells
Briefly: Cellular assay of target protein degradation, T-Rex 293 cells stably transfected with HA-BRAF G466V (HA immunofluorescence, high content imaging). It is filed as cell-based. The note with it: T-Rex 293 HA-BRAF G466V; for DC50: half maximal degradation, read-out: BRaf G466V DC50; for Dmax: maximum degradation observed. Summed up: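 24 h compound, 30 nM–3 pM final, 0.1% DMSO, 37° C; HA-BRAF G466V induced with 0.75 ng/mL doxycycline. PFA fix, Triton perm, anti-HA + Alexa fluor secondary, Hoechst/phalloidin counterstain; imaging. DC50, Dmax (% of control).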

For the next assay, the target named is T2, BRAF V600E (Homo sapiens, UniProt P15056, V600E).
T2 construct: expressed in transfected cells
Briefly: Cellular assay of target protein degradation, T-Rex 293 cells stably transfected with HA-BRAF_V600E (HA immunofluorescence, high content imaging). Format: cell-based. The following applies: T-Rex 293 HA-BRAF V600E; for DC50: half maximal degradation, read-out: BRaf V600E DC50; for Dmax: maximum degradation observed. In outline:
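24 h compound exposure, 1 μM–0.1 nM final, 0.1% DMSO, 37 °C; cells induced with 1 ng/mL doxycycline. PFA fix, Triton permeabilize, anti-HA overnight 4 °C, Hoechst/phalloidin counterstain. Output: DC50, Dmax as % control.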

T2 sequence (P15056 whole entry V600E): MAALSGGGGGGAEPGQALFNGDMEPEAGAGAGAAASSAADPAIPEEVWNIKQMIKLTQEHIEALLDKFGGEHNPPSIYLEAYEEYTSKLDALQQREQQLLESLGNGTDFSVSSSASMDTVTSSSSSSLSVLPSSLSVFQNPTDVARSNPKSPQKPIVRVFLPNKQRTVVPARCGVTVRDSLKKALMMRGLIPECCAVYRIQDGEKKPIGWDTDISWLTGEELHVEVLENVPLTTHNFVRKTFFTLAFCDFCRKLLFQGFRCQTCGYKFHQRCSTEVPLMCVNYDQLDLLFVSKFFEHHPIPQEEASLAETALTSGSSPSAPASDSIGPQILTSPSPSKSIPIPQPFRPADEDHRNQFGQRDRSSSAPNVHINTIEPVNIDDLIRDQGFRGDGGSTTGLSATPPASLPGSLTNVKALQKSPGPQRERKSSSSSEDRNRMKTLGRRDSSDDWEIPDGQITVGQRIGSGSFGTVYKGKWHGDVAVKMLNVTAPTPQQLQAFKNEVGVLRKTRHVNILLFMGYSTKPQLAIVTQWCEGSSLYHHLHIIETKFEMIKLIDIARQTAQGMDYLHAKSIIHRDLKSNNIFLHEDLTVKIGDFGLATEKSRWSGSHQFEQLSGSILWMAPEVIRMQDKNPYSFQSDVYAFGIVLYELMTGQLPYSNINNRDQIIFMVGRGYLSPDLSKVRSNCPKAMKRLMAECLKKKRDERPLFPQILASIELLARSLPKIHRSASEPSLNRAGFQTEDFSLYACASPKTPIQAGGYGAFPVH
T1 sequence (P15056 whole entry G466V): as the sequence (P15056 whole entry V600E) above, with G466V, E600V counted along it

With `COc1ccc(NS(=O)(=O)N2CC[C@@H](F)C2)c(F)c1C(=O)c1c[nH]c2ncc(-c3ccc(N4CCC(CN5CCC(c6ccc7c(c6)CN(C6CCC(=O)NC6=O)C7=O)CC5)CC4)cc3)cc12` (stereo partly drawn) [Compound 269, (3R)-N-[3-(5-{4-[4-({4-[2-(2,6-dioxopiperidin-3-yl)-1-oxo-2,3-dihydro-1H-isoindol-5-yl]piperidin-1-yl}methyl)piperidin-1-yl]phenyl}-1H-pyrrolo[2,3-b]pyridine-3-carbonyl)-2-fluoro-4-methoxyphenyl]-3-fluoropyrrolidine-1-sulfonamide], on BRAF G466V, the DC50 fell in the range of 1 to 10 nM and the Dmax was in the range of 35 to 70%. In addition, on BRAF V600E, the 50% degradation concentration (DC50) lay within 5 to 50 nM and the Dmax was 35 to 70%.
On to `C[C@H]1[C@H](F)CCN1S(=O)(=O)Nc1ccc(F)c(C(=O)c2c[nH]c3ncc(-c4ccc(N5CCC(CN6CCC(c7ccc8c(c7)CN([C@H]7CCC(=O)NC7=O)C8=O)CC6)CC5)cc4)cc23)c1F` [Compound 270, (2S,3R)-N-{3-[5-(4-{4-[(4-{2-[(3S)-2,6-dioxopiperidin-3-yl]-1-oxo-2,3-dihydro-1H-isoindol-5-yl}piperidin-1-yl)methyl]piperidin-1-yl}phenyl)-1H-pyrrolo [2,3-b]pyridine-3-carbonyl]-2,4-difluorophenyl}-3-fluoro-2-methylpyrrolidine-1-sulfonamide], for which, at BRAF G466V, the DC50 lay in the range of 1 to 10 nM and the Dmax is > 70%. Moreover, at BRAF V600E, the DC50 is 5 to 50 nM and the Dmax is 35 to 70%.
For `C[C@H]1[C@H](F)CCN1S(=O)(=O)Nc1ccc(F)c(C(=O)c2c[nH]c3ncc(-c4ccc(N5CCC(CN6CCC(c7ccc8c(c7)CN(C7CCC(=O)NC7=O)C8=O)CC6)CC5)cc4)cc23)c1F` (stereo partly drawn) [Compound 271, (2S,3R)-N-[3-(5-{4-[4-({4-[2-(2,6-dioxopiperidin-3-yl)-1-oxo-2,3-dihydro-1H-isoindol-5-yl]piperidin-1-yl}methyl)piperidin-1-yl]phenyl}-1H-pyrrolo[2,3-b]pyridine-3-carbonyl)-2,4-difluorophenyl]-3-fluoro-2-methylpyrrolidine-1-sulfonamide], the 50% degradation concentration (DC50) at BRAF G466V was 1 to 10 nM; on BRAF V600E it was 5 to 50 nM. The figures for the Dmax at BRAF G466V and at BRAF V600E were > 70% and 35 to 70%, respectively.
The like results for `O=C1CC[C@H](N2Cc3cc(C4CCN(CC5CCN(c6ccc(-c7cnc8[nH]cc(C(=O)c9c(F)ccc(NS(=O)(=O)N%10CC[C@@H](F)C%10)c9C(F)(F)F)c8c7)cc6)CC5)CC4)ccc3C2=O)C(=O)N1` [Compound 272, (3R)-N-{3-[5-(4-{4-[(4-{2-[(3S)-2,6-dioxopiperidin-3-yl]-1-oxo-2,3-dihydro-1H-isoindol-5-yl}piperidin-1-yl)methyl]piperidin-1-yl}phenyl)-1H-pyrrolo [2,3-b]pyridine-3-carbonyl]-4-fluoro-2-(trifluoromethyl)phenyl}-3-fluoropyrrolidine-1-sulfonamide] were, in that order, 1 to 10 nM, 50 to 500 nM, 35 to 70% and 35 to 70%.
The like results for `O=C1CCC(N2Cc3cc(C4CCN(CC5CCN(c6ccc(-c7cnc8[nH]cc(C(=O)c9c(F)ccc(NS(=O)(=O)N%10CC[C@@H](F)C%10)c9C(F)(F)F)c8c7)cc6)CC5)CC4)ccc3C2=O)C(=O)N1` (stereo partly drawn) [Compound 273, (3R)-N-[3-(5-{4-[4-({4-[2-(2,6-dioxopiperidin-3-yl)-1-oxo-2,3-dihydro-1H-isoindol-5-yl]piperidin-1-yl}methyl)piperidin-1-yl]phenyl}-1H-pyrrolo[2,3-b]pyridine-3-carbonyl)-4-fluoro-2-(trifluoromethyl)phenyl]-3-fluoropyrrolidine-1-sulfonamide] were, in that order, 10 to 30 nM, > 500 nM, 35 to 70% and 35 to 70%.
Regarding `COc1ccc(NS(=O)(=O)N2CC[C@@H](F)C2)c(OC)c1C(=O)c1c[nH]c2ncc(-c3ccc(N4CCC(CN5CCC(c6ccc7c(c6)CN([C@H]6CCC(=O)NC6=O)C7=O)CC5)CC4)cc3)cc12` [Compound 274, (3R)-N-{3-[5-(4-{4-[(4-{2-[(3S)-2,6-dioxopiperidin-3-yl]-1-oxo-2,3-dihydro-1H-isoindol-5-yl}piperidin-1-yl)methyl]piperidin-1-yl}phenyl)-1H-pyrrolo [2,3-b]pyridine-3-carbonyl]-2,4-dimethoxyphenyl}-3-fluoropyrrolidine-1-sulfonamide], the DC50 at BRAF G466V was > 30 nM; at BRAF V600E, > 500 nM.
The like results for `COc1ccc(NS(=O)(=O)N2CC[C@@H](F)C2)c(OC)c1C(=O)c1c[nH]c2ncc(-c3ccc(N4CCC(CN5CCC(c6ccc7c(c6)CN(C6CCC(=O)NC6=O)C7=O)CC5)CC4)cc3)cc12` (stereo partly drawn) [Compound 275, (3R)-N-[3-(5-{4-[4-({4-[2-(2,6-dioxopiperidin-3-yl)-1-oxo-2,3-dihydro-1H-isoindol-5-yl]piperidin-1-yl}methyl)piperidin-1-yl]phenyl}-1H-pyrrolo[2,3-b]pyridine-3-carbonyl)-2,4-dimethoxyphenyl]-3-fluoropyrrolidine-1-sulfonamide] were, in that order, > 30 nM and > 500 nM.
For the compound `CCc1c(NS(=O)(=O)N2CC[C@@H](F)C2)ccc(F)c1C(=O)c1c[nH]c2ncc(-c3ccc(N4CCC(CN5CCC(c6ccc7c(c6)CN(C6CCC(=O)NC6=O)C7=O)CC5)CC4)cc3)cc12` (stereo partly drawn) [Compound 276, (3R)-N-[3-(5-{4-[4-({4-[2-(2,6-dioxopiperidin-3-yl)-1-oxo-2,3-dihydro-1H-isoindol-5-yl]piperidin-1-yl}methyl)piperidin-1-yl]phenyl}-1H-pyrrolo[2,3-b]pyridine-3-carbonyl)-2-ethyl-4-fluorophenyl]-3-fluoropyrrolidine-1-sulfonamide], at BRAF G466V, the DC50 is < 1 nM and the Dmax lay within 35 to 70%. Also, on BRAF V600E, the DC50 is < 5 nM and the Dmax is 35 to 70%.
With `C[C@@H]1CC[C@@H](C)N1S(=O)(=O)Nc1ccc(F)c(C(=O)c2c[nH]c3ncc(-c4ccc(N5CCC(CN6CCC(c7ccc8c(c7)CN([C@H]7CCC(=O)NC7=O)C8=O)CC6)CC5)cc4)cc23)c1F` [Compound 277, (2R,5R)-N-{3-[5-(4-{4-[(4-{2-[(3S)-2,6-dioxopiperidin-3-yl]-1-oxo-2,3-dihydro-1H-isoindol-5-yl}piperidin-1-yl)methyl]piperidin-1-yl}phenyl)-1H-pyrrolo [2,3-b]pyridine-3-carbonyl]-2,4-difluorophenyl}-2,5-dimethylpyrrolidine-1-sulfonamide], on BRAF G466V, the DC50 was in the range of 10 to 30 nM and the Dmax was > 70%. For the same compound, at BRAF V600E, the DC50 lay in the range of 5 to 50 nM and the Dmax is < 35%.
The like results for `O=C1CC[C@H](N2Cc3cc(C4CCN(CC5CCN(c6ccc(-c7cnc8[nH]cc(C(=O)c9c(F)ccc(NS(=O)(=O)N%10CC[C@@H](O)C%10)c9F)c8c7)cc6)CC5)CC4)ccc3C2=O)C(=O)N1` [Compound 278, (3R)-N-{3-[5-(4-{4-[(4-{2-[(3S)-2,6-dioxopiperidin-3-yl]-1-oxo-2,3-dihydro-1H-isoindol-5-yl}piperidin-1-yl)methyl]piperidin-1-yl}phenyl)-1H-pyrrolo [2,3-b]pyridine-3-carbonyl]-2,4-difluorophenyl}-3-hydroxypyrrolidine-1-sulfonamide] were, in that order, 1 to 10 nM, 35 to 70%, 5 to 50 nM and 35 to 70%.
